Assay results as given in patent US20110039762A1, “TARGETED ANTIMICROBIAL MOIETIES” (C3 JIAN, INC., priority 2009, published 2011).
Entries after “also recorded” stand apart in the source; their conditions may differ.

Key:
microorganisms = test: Peptides having multiple activities (targeting/binding, antimicrobial, growth or phenotype altering)
From the text: In certain embodiments, peptides described herein can have multiple activities. Thus for example, a peptide can have both binding/targeting activity and antimicrobial activity. Such peptides can be used, e.g., in a chimeric construct, for any or all of these properties. Thus, for example, a peptide designated “B” in Table 8 can be used as a targeting peptide. If it is also designated G or M it can also be used for antimicrobial activity.

[1] = test system: microorganisms (e.g., bacteria, yeasts, fungi); test: Targeting peptide binding to target microorganisms (Table 3); details: preferably 1x PBS; for Target(s): microorganism(s) the targeting peptide binds; for Target(s) (microorganisms bound by the targeting peptide): peptide binding in aqueous buffers varied by peptide solubility
E. coli = test: Kill or inhibit growth/proliferation; morphology, biofilm and growth disruption (Tables 5, 6); type: cell-based, Escherichia coli; parameters: key: A: Peptide aggregates; B: Less hyphal formation; Clumps; Diffuse clumps and small polyps; F: Diffuse growth; H: Thin; I: Growth inhibition; Microcolony formation; Rippled; Small polyps; Thick; W: Halo formation on top, microlonies on bottom; further: test concentration or dose not given here
MRSA = test: as above; type: cell-based, Methicillin-resistant Staphylococcus aureus; parameters: key: A: Peptide aggregates; B: Less hyphal formation; Clumps; Diffuse clumps and small polyps; F: Diffuse growth; H: Thin; I: Growth inhibition; Microcolony formation; Rippled; Small polyps; Thick; W: Halo formation on top, microlonies on bottom
S. epidermidis = test: as above; type: cell-based, Staphylococcus epidermidis; parameters: key: A: Peptide aggregates; B: Less hyphal formation; Clumps; Diffuse clumps and small polyps; F: Diffuse growth; H: Thin; I: Growth inhibition; Microcolony formation; Rippled; Small polyps; Thick; W: Halo formation on top, microlonies on bottom
S. pneumoniae = test: as above; type: cell-based, Streptococcus pneumoniae; parameters: key: A: Peptide aggregates; B: Less hyphal formation; Clumps; Diffuse clumps and small polyps; F: Diffuse growth; H: Thin; I: Growth inhibition; Microcolony formation; Rippled; Small polyps; Thick; W: Halo formation on top, microlonies on bottom
E. faecalis = test: as above; type: cell-based, Enterococcus faecalis; parameters: key: A: Peptide aggregates; B: Less hyphal formation; Clumps; Diffuse clumps and small polyps; F: Diffuse growth; H: Thin; I: Growth inhibition; Microcolony formation; Rippled; Small polyps; Thick; W: Halo formation on top, microlonies on bottom; further: test concentration or dose not given here
[2] = binding in aqueous buffers depending on peptide solubility
[3] = peptide binding conducted in aqueous buffers varied by peptide solubility
Wherever Organism, effect (morphology, biofilm and growth disruption) is given: test concentration or dose not given here.
Wherever Organism, effect is given: test concentration or dose not given here.

Substance | Activities (microorganisms) | Target(s) [1, 2] | Organism, effect (E. coli) | Organism, effect (MRSA) | Organism, effect (S. epidermidis) | Target(s) [1, 3] | Organism, effect (S. pneumoniae) | Organism, effect (E. faecalis) | Target(s) (microorganisms bound by the targeting peptide) [1] | Organism, effect (morphology, biofilm and growth disruption) (MRSA) | Organism, effect (morphology, biofilm and growth disruption) (S. pneumoniae) | Organism, effect (morphology, biofilm and growth disruption) (E. faecalis) | Organism, effect (morphology, biofilm and growth disruption) (S. epidermidis)
PF-344: peptide having multiple activities (DERLPEAKAIRNFNGSVMVLGR; Peptide with targeting and/or antimicrobial activity) | G B | B. subtilis; also recorded: C. jejuni | E. coli (A) | – | – | – | – | – | – | – | – | – | –
PF-350: peptide having multiple activities (LAVILRAIVY; Peptide with targeting and/or antimicrobial activity) | G B | S. epidermidis; also recorded: E. coli; also recorded: E. faecalis; also recorded: C. jeikeium; also recorded: C. jejuni | E. coli (C) | MRSA (C) | S. epidermidis (C) | – | – | – | – | – | – | – | –
PF-362: peptide having multiple activities (chain 1 NIERILKEKVWMIRCVE; chain 2 NIERILKEKVWMIRCVE; Peptide with targeting and/or antimicrobial activity) | G B | S. epidermidis; also recorded: E. coli; also recorded: P. aeruginosa; also recorded: C. albicans; also recorded: E. faecalis; also recorded: C. jejuni | E. coli (C) | MRSA (C) | – | – | – | – | – | – | – | – | –
PF-383: peptide having multiple activities (chain 1 WSEIEINTKQSN; chain 2 WSEIEINTKQSN; Peptide with targeting and/or antimicrobial activity) | G B | S. epidermidis; also recorded: B. subtilis; also recorded: B. fragilis; also recorded: E. coli; also recorded: C. jejuni | E. coli (R) | – | S. epidermidis (C) | – | – | – | – | – | – | – | –
PF-385: peptide having multiple activities (chain 1 MIKKSILKIKYYVPVLISLTLILSA; chain 2 MIKKSILKIKYYVPVLISLTLILSA; Peptide with targeting and/or antimicrobial activity) | G B | S. epidermidis | E. coli (A) | – | – | E. coli; also recorded: P. aeruginosa; also recorded: C. albicans; also recorded: E. faecalis | – | – | – | – | – | – | –
PF-407: peptide having multiple activities (KPKNKKEKTVISYEKLLSMY; Peptide with targeting and/or antimicrobial activity) | G B | – | – | MRSA (C) | S. epidermidis (M) | – | S. pneumoniae (R) | E. faecalis (R) | – | – | – | – | –
PF-429: peptide having multiple activities (AATLICVGSGIMSSL; Peptide with targeting and/or antimicrobial activity) | G B | – | – | MRSA (C) | S. epidermidis (C) | S. epidermidis; also recorded: S. pneumoniae; also recorded: C. jeikeium | S. pneumoniae (M) | E. faecalis (C) | – | – | – | – | –
PF-443: peptide having multiple activities (chain 1 KLLYFFNYFENLQQVHLLVQL; chain 2 KLLYFFNYFENLQQVHLLVQL; Peptide with targeting and/or antimicrobial activity) | G B | – | E. coli (R) | MRSA (C) | – | – | S. pneumoniae (C) | – | – | – | – | – | –
PF-447: peptide having multiple activities (chain 1 IDKSRNKDQFSHIFGLYNICSG; chain 2 IDKSRNKDQFSHIFGLYNICSG; Peptide with targeting and/or antimicrobial activity) | G B | – | – | MRSA (C) | S. epidermidis (C) | S. epidermidis; also recorded: M. luteus; also recorded: E. coli; also recorded: S. pneumoniae | S. pneumoniae (C) | E. faecalis (C) | – | – | – | – | –
PF-450: peptide having multiple activities (chain 1 HRNLIILQRTIFI; chain 2 HRNLIILQRTIFI; Peptide with targeting and/or antimicrobial activity) | G B | – | – | MRSA (C) | – | – | S. pneumoniae (C) | E. faecalis (C) | – | – | – | – | –
PF-541 (RRNLNSPNIKTRKRALKIIKQHQRSK; Peptide with targeting and/or antimicrobial activity) | – | – | E. coli (H) | – | – | – | S. pneumoniae (H) | – | – | – | – | – | –
PF-544: peptide having multiple activities (chain 1 FGEKQMRSWWKVHWFHP; chain 2 FGEKQMRSWWKVHWFHP; Peptide with targeting and/or antimicrobial activity) | G B | – | – | MRSA (D) | S. epidermidis (D) | – | S. pneumoniae (M) | E. faecalis (R) | – | – | – | – | –
PF-613: peptide having multiple activities (ADEFAKL; Peptide with targeting and/or antimicrobial activity) | G B | – | – | MRSA (C) | S. epidermidis (R) | – | – | E. faecalis (A) | C. jeikeium | – | – | – | –
PF-616: peptide having multiple activities (IVFVVTKEKK; Peptide with targeting and/or antimicrobial activity) | G B | – | – | – | S. epidermidis (R) | – | – | E. faecalis (A) | C. jeikeium | – | – | – | –
PF-638: peptide having multiple activities (chain 1 TFILPK; chain 2 TFILPK; Peptide with targeting and/or antimicrobial activity) | G B | – | – | MRSA (M) | S. epidermidis (R) | – | S. pneumoniae (I) | E. faecalis (H) | S. epidermidis and C. albicans and MRSA and C. jeikeium | – | – | – | –
PF-664: peptide having multiple activities (chain 1 DQLCVEYPARVSTG; chain 2 DQLCVEYPARVSTG; Peptide with targeting and/or antimicrobial activity) | G B | – | – | – | – | – | – | – | M. smegmatis | MRSA (R) | S. pneumoniae (M) | E. faecalis (R) | S. epidermidis (M)
PF-667 (chain 1 PAHQRLRIDQRLVADRDMVQDYES; chain 2 PAHQRLRIDQRLVADRDMVQDYES; Peptide with targeting and/or antimicrobial activity) | – | – | – | – | – | – | – | – | Mycobacteria spp | MRSA (R) | S. pneumoniae (R) | E. faecalis (R) | S. epidermidis (R)
PF-677 (chain 1 TCRGAGMH; chain 2 TCRGAGMH; Peptide with targeting and/or antimicrobial activity) | – | – | – | – | – | – | – | – | Mycobacteria spp | MRSA (D) | S. pneumoniae (D) | E. faecalis (R) | S. epidermidis (R)
PF-690 (chain 1 MIPLAGDPVSSHRTVEFGVLGTYLVSGGSL; chain 2 MIPLAGDPVSSHRTVEFGVLGTYLVSGGSL; Peptide with targeting and/or antimicrobial activity) | – | – | – | – | – | – | – | – | Mycobacteria spp | MRSA (R) | S. pneumoniae (M) | E. faecalis (R) | S. epidermidis (R)
PF-695 (chain 1 ALSVMLGNIPLVVPNANQL; chain 2 ALSVMLGNIPLVVPNANQL; Peptide with targeting and/or antimicrobial activity) | – | – | – | – | – | – | – | – | Mycobacteria spp | MRSA (R) | S. pneumoniae (C) | E. faecalis (R) | –
